Values of other authors as cited in patent US20260232589A1, “NANOPREPARATIONS LOADED WITH TRABECTEDIN AND PACLITAXEL” (SHANGHAI JIAO TONG UNIVERSITY, priority 2023, published 2026).

System: Ly6Chi monocytes
Details: literature reports, after trabectedin administration

COc1cc2c(cc1O)CCN[C@]21CS[C@@H]2c3c(OC(C)=O)c(C)c4c(c3[C@H](COC1=O)N1[C@@H]2[C@H]2c3c(cc(C)c(OC)c3O)C[C@@H]([C@@H]1O)N2C)OCO4 [trabectedin]
number of Ly6Chi monocytes in the peripheral blood of mice: decreases
